{"source": "patent US20030129629A1", "about": "“Methods and compositions for the identification, assessment, prevention, and therapy of human cancers” (Millennium Pharmaceuticals, Inc., priority 2000, published 2003)", "origin": "cited, not measured here", "system": "60 cancer cell lines (NCI 60 cancer cell line series)", "conditions": "cited from earlier work", "note": "Where two headings read alike, the source gives them in different places."}
{"smiles": "CC[C@@]1(O)C(=O)OCc2c1cc1n(c2=O)Cc2cc3c(CN(C)C)c(O)ccc3nc2-1", "note": "[Topotecan]", "values": [{"measurement": "−Log (GI50)", "setting": "CNS SF-268 CL12014", "value": 7.7}, {"measurement": "−Log (GI50)", "setting": "Leukemia CCRF-CEM(I) CL7003", "value": 7.9}, {"measurement": "−Log (GI50)", "setting": "Leukemia MOLT-4 CL7006", "value": 7.9}, {"measurement": "−Log (GI50)", "setting": "NSCLC HOP-62 CL1026", "value": 7.9}, {"measurement": "−Log (GI50)", "setting": "NSCLC NCI-H23(I) CL1001", "value": 7.4}, {"measurement": "−Log (GI50)", "setting": "NSCLC NCI-H460 CL1021", "value": 7.7}]}
